Experiment [1] deals with MCF7. As to the kind of experiment: Inhibition of cell proliferation of human MCF7 cells incubated for 24 hrs. Type of experiment: functional, cell-based. As to conditions: MCF7, 24 h.
Experiment [2] has as its target T1, Protein phosphatase 1D (Homo sapiens, UniProt O15297).
T1 sequence (O15297 whole entry): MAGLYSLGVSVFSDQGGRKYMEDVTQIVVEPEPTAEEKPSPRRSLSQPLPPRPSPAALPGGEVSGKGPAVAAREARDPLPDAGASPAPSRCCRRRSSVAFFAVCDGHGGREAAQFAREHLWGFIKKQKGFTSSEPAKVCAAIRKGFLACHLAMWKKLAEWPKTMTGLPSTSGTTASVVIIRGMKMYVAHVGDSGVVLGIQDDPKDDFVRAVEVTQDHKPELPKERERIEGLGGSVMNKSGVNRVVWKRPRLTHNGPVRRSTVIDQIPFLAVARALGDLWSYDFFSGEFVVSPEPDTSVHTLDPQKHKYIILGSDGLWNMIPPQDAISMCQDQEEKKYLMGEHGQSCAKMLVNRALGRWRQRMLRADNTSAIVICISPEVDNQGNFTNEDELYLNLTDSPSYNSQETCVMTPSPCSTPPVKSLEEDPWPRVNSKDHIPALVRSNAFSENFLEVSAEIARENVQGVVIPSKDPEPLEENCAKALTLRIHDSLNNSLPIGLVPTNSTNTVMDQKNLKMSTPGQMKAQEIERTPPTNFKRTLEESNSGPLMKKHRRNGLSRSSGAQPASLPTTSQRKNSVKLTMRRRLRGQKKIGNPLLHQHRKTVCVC
As to the kind of experiment: Inhibition of His-tagged PPM1D (1 to 420 residues) (unknown origin) expressed in Escherichia coli BL21 (DE3) pLysS cells using Ac-VEPPLS(P)QETFSDLW-NH2 substrate.

Experiment [3] relates to NCI-H1299. As to the kind of experiment: Inhibition of cell proliferation of human H1299 cells overexpressing HA-PPM1D at 5 to 20 incubated for 24 hrs. Type of experiment: functional, cell-based.
For experiment [4], the system named is NCI-H1299. In words: Inhibition of cell proliferation of human H1299 cells at 5 to 20 incubated for 24 hrs. Type of experiment: functional, cell-based.
Experiment [5] concerns MCF7. As to the kind of experiment: Inhibition of cell proliferation of human MCF7 cells at > 20 uM incubated for 24 hrs. Type of experiment: functional, cell-based.
The target of experiment [6] is T2, Protein phosphatase 1A (Homo sapiens) (UniProt P35813).
T2 sequence (whole entry): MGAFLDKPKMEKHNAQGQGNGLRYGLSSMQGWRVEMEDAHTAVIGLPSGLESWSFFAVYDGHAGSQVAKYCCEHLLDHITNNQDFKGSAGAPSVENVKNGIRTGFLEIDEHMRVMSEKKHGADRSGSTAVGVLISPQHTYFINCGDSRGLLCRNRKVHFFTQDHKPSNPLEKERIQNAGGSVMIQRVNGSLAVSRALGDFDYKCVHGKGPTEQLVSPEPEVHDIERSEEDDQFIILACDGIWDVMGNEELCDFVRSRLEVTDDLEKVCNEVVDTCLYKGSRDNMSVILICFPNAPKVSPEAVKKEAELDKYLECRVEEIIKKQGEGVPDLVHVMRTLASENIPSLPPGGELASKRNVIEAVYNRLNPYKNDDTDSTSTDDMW
In words: Inhibition of His-tagged PPM1A (unknown origin) at 2 to 10 uM using Ac-TDDE(Nle)T(P)GY(P)VAT-NH2 substrate.

The species named for experiment [7] is Homo sapiens. In words: Inhibition of PP1 (unknown origin) at 2 to 10 uM using Ac-WGAKAKKT(P)PKAKK-NH2 substrate.
The species entered for experiment [8] is Homo sapiens. In words: Inhibition of PP2A (unknown origin) at 2 to 10 uM using Ac-TDDE(Nle)T(P)GY(P)VAT-NH2 substrate.
Experiment [9] concerns MCF7. In words: Induction of cell cycle arrest in human MCF7 cells assessed as increase in cell accumulation at G2/M phase incubated for 24 hrs by propidium iodide staining based flow cytometry. Type of experiment: functional. A general note: A flow cytometer gives signals particle by particle.
The subject of experiment [10] is MCF7. As to the kind of experiment: Induction of cell cycle arrest in human MCF7 cells assessed as increase in cell accumulation at subG1 phase incubated for 24 hrs by propidium iodide staining based flow cytometry. Type of experiment: functional.
In experiment [11] the test system is MCF7. In words: Induction of apoptosis in human MCF7 cells incubated for 24 hrs by Annexin-V staining based flow cytometry. Type of experiment: functional, cell-based.
Experiment [12] concerns MCF7. In words: Effect on PPM1D protein expression in UV irradiated human MCF7 cells by Western blotting method. Type of experiment: functional, cell-based. On the technique in general: In western blotting, separated proteins are transferred to a membrane and probed.

Molecules are shown by their SMILES. Calls of active or inactive are those of the source. The rule behind the calls is not given here.

As a reminder, the IC50 is the concentration needed to halve the response being measured. A low value points to higher potency. For `Cc1ncc(Cl)cc1NCc1ccc(C(=O)N[C@@H](CC2CCCC2)C(=O)NC2CC2)s1`, the IC50 in [1] was 9.5 µM; in experiment [2] it was 0.0863 µM. The inhibition entry in [3] and in experiment [4] was “inactive” each time.
`CC[Si](CC)(CC)O[C@@H]1CCC[C@@H]2[C@@H]1C[C@H](O[Si](C)(C)C(C)(C)C)C[C@@]2(C)CO` gave an IC50 in [1] of 36.1 µM.
On to `CC[Si](CC)(CC)O[C@@H]1C[C@H](C)C[C@@H]2[C@@H]1C[C@H](O[Si](C)(C)C(C)(C)C)[C@@H]1[C@](C)(CO)C[C@H](O)C[C@@]21C`, for which the IC50 in [1] came out at 26.9 µM; in experiment [2], 0.0869 µM.
As for `CC[Si](CC)(CC)O[C@@H]1CCC[C@@H]2[C@@H]1C[C@H](O[Si](C)(C)C(C)(C)C)C[C@@]2(C)C(=O)O`, in [1], the IC50 came to 7.4 µM. Also, the inhibition result in [5] and in experiment [3] was “Active” each time. Also, the inhibition result in [6], in [7], in experiment [8] and in [4] was “inactive” each time. The result in experiment [9], in experiment [10] and in experiment [11] was Active. The outcome in experiment [12] was inactive.
